Assay results from PubChem BioAssay AID248 (DTP/NCI, 2004).
Where “and” joins values, the source holds several entries; their conditions need not be identical. Equal entries are not always repeated. Toxic doses and inconclusive results are not listed.

System: L1210 leukemia ip in BDF1 mice, survival T/C
Experiment: NCI In Vivo Anticancer Drug Screen. Data for tumor model L1210 Leukemia (intraperitoneal) in B6D2F1 (BDF1) mice
Conditions: endpoint: mean survival time, higher = longer survival
In short: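 Antitumor effect is assessed in tumor-bearing animals. Survival in the compound arm is compared with a vehicle-dosed control arm and expressed as their quotient.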

[1] = dose: 50.0 mg/kg/injection, schedule: Q01DX009 (ip), vehicle: Klucel (hydroxypropylcellulose) (HPC)
[2] = dose: 100.0 mg/kg/injection, schedule: Q01DX009 (ip), vehicle: Klucel (hydroxypropylcellulose) (HPC)
[3] = dose: 100.0 mg/kg/injection, schedule: Q04DX003 (ip), vehicle: Klucel (hydroxypropylcellulose) (HPC)
[4] = dose: 200.0 mg/kg/injection, schedule: Q01DX009 (ip), vehicle: Klucel (hydroxypropylcellulose) (HPC)
[5] = dose: 200.0 mg/kg/injection, schedule: Q04DX003 (ip), vehicle: Klucel (hydroxypropylcellulose) (HPC)

CN(Cc1cnc2nc(N)nc(N)c2n1)c1ccc(C(=O)NC(CCC(=O)NCC(=O)O)C(=O)O)cc1 (stereo not drawn) was tested, and the T/C (dose: 5.0 mg/kg/injection, schedule: Q01DX009 (ip), vehicle: sodium bicarbonate) was 174 % of control and the T/C (dose: 10.0 mg/kg/injection, schedule: Q01DX009 (ip), vehicle: sodium bicarbonate) was 161 % of control.

With C[N+]1(CC(=O)c2ccc(CCc3ccc(C(=O)C[N+]4(C)CCCCC4)cc3)cc2)CCCCC1 the T/C (dose: 0.78 mg/kg/injection, schedule: Q01DX009 (ip), vehicle: saline) was 117 % of control, the T/C (dose: 0.78 mg/kg/injection, schedule: Q04DX002 (ip), vehicle: saline) was 101 % of control and the T/C (dose: 1.56 mg/kg/injection, schedule: Q01DX009 (ip), vehicle: saline) was 106 % of control. For the same compound, the T/C (dose: 1.56 mg/kg/injection, schedule: Q04DX002 (ip), vehicle: saline) was 95 % of control, the T/C (dose: 3.12 mg/kg/injection, schedule: Q01DX009 (ip), vehicle: saline) was 92 % of control and the T/C (dose: 3.12 mg/kg/injection, schedule: Q04DX002 (ip), vehicle: saline) was 98 % of control and 105 % of control.

For CC1(C)N=C(N)N=C(N)N1NC(=O)c1cccc(Cl)c1, the T/C (dose: 100.0 mg/kg/injection, schedule: Q04DX003 (ip), vehicle: saline) was 101 % of control and the T/C (dose: 200.0 mg/kg/injection, schedule: Q04DX003 (ip), vehicle: saline) was 94 % of control.

For OC1(C#CC2(O)CCCCC2)CCCCC1, the T/C [1] was 98 % of control, the T/C [2] was 89 % of control and the T/C [3] was 98 % of control. For the same compound, the T/C [4] was 102 % of control and the T/C [5] was 90 % of control.

With Oc1ccc(-c2nnc(-c3ccc(O)cc3)nn2)cc1 the T/C (dose: 100.0 mg/kg/injection, schedule: Q04DX002 (ip), vehicle: Klucel (hydroxypropylcellulose) (HPC)) was 91 % of control, the T/C (dose: 200.0 mg/kg/injection, schedule: Q04DX002 (ip), vehicle: Klucel (hydroxypropylcellulose) (HPC)) was 94 % of control and the T/C (dose: 400.0 mg/kg/injection, schedule: Q04DX002 (ip), vehicle: Klucel (hydroxypropylcellulose) (HPC)) was 102 % of control.

In the case of CCOC(=O)c1cnc(SC)nc1Nc1cccc(C)c1, the T/C (dose: 100.0 mg/kg/injection, schedule: Q04DX003 (ip), vehicle: saline with Tween-80) is reported as 86 % of control, the T/C (dose: 200.0 mg/kg/injection, schedule: Q04DX003 (ip), vehicle: saline with Tween-80) is reported as 91 % of control and the T/C (dose: 400.0 mg/kg/injection, schedule: Q04DX003 (ip), vehicle: saline with Tween-80) is reported as 86 % of control.

In the case of CC(C)(C)CCCC1C(=O)N(c2ccccc2)N(c2ccccc2)C1=O, the T/C [1] is reported as 110 % of control, the T/C [2] is reported as 110 % of control and the T/C [3] is reported as 106 % of control. The T/C [4] was 112 % of control, the T/C [5] was 96 % of control and the T/C (dose: 400.0 mg/kg/injection, schedule: Q04DX003 (ip), vehicle: Klucel (hydroxypropylcellulose) (HPC)) was 101 % of control.

C1=Nc2c(ccc3ccccc23)CS1 was tested, and the T/C (dose: 100.0 mg/kg/injection, schedule: Q04DX002 (ip), vehicle: other) was 93 % of control.
